# pIC50, pKi: −log10 of the molar value.
# Tests used:
# [1] = biological target: human D3 dopaminergic receptor (D3R) (Homo sapiens, UniProt P35462); experiment: Competition binding of [3H]-spiperone and GTP-shift (functional binding) in membranes of recombinant Chem-1 cells; details: for pIC50: D3R, [3H]-spiperone 0.5 nM, 95% confidence interval in parentheses; for Na+-Shift (II/I) D3R: IC50 in NaCl + GTP (II) divided by IC50 in MgCl2 + CaCl2 (I); for Intrinsic Efficacy at D3R: classified from the Na+-shift (GTP-shift assay)
# Sequence of human D3 dopaminergic receptor (D3R) (P35462 whole entry): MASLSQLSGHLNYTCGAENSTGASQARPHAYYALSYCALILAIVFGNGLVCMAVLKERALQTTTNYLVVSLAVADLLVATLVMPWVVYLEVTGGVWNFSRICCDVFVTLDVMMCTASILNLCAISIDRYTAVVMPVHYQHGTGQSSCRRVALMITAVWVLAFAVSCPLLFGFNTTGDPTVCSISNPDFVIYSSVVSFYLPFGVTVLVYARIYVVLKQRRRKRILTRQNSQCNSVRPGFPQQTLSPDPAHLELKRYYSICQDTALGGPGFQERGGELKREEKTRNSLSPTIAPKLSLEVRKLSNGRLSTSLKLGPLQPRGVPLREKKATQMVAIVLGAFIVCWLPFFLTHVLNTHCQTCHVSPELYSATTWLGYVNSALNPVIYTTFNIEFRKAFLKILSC
# D2R = biological target: T1, D2R (Rattus norvegicus, UniProt P61169); experiment: Competition binding of [3H]-YM-09151-2 to D2-like receptors in rat striatal membranes
# T1 construct: from tissue; host or cells: striatum of adult male Wistar rats
# T1 sequence (P61169 whole entry): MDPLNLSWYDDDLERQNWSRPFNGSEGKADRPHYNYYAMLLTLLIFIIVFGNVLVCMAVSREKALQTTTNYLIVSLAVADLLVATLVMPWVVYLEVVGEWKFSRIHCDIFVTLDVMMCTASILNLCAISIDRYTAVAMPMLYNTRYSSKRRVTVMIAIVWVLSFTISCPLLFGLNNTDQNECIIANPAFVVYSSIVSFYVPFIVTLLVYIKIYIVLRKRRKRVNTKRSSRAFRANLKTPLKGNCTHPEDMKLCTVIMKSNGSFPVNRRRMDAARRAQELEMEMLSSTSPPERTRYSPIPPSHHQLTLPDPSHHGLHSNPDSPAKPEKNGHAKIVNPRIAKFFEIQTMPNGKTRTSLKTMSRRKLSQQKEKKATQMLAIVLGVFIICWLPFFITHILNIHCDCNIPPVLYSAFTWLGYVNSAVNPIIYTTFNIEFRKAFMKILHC
# Experimental: Finally, to evaluate the selectivity of the substances, classic binding to D2-like receptors was performed using rat striatal membranes. Adult male Wistar rats (2.5–3 months) were killed by decapitation, their brains were immediately removed on ice and the striatum was dissected and stored in liquid nitrogen until use. This procedure was approved by the Institutional Ethical Committee for Animal Care from the Federal University of Rio de Janeiro (CEUA no. 052/19; 30 April 2019). The striatum was homogenized in a motorized Potter-type apparatus with a Teflon piston at 4 °C at 20 volumes per gram of tissue in ice-cold 50 mM Tris-HCl buffer (pH 7.4) containing 8 mM MgCl2 and 5 mM ethylenediaminetetraacetic acid (EDTA). The resulting suspension was ultracentrifuged at 48,000× g at 4 °C for 20 min. The pellet was resuspended in 20 volumes of the same buffer and incubated at 37 °C for 10 min to remove endogenous neurotransmitters. This suspension was cooled and ultracentrifuged at 48,000× g for 20 min at 4 °C [46]. The final pellet was resuspended and stored in liquid nitrogen until use.
# In a medium containing the antagonist radioligand [^3H]-YM-09151-2 0.1 nM, 120 mM NaCl, 5 mM KCl, 5 mM MgCl2, 1.5 mM CaCl2, 1 mM EDTA and 50 mM Tris-HCl (pH 7.2 a 25 °C), 50 µg of […] striatum membrane was incubated in the dark (sodium light) for 60 min at 37 °C. Nonspecific binding was estimated using sulpiride (30 µM).
# [2] = IC50 (MgCl2 + CaCl2), medium I: 5 mM MgCl2 and 1.5 mM CaCl2
# [3] = IC50 (NaCl + GTP), medium II: 154 mM NaCl and 1 mM GTP
"pIC50 [1, 2]","pIC50 [1, 3]",Na+-Shift (II/I) D3R [1],Intrinsic Efficacy at D3R [1],melting point [°C],pKi (D2R),Structure (SMILES)
5.96,5.92,1.1,antagonist,154 to 156,6.36,"Cc1cc2c(cc1S(=O)(=O)Nc1ccc(CN3CCN(c4ccccc4)CC3)cc1)OCO2 [Compound 5a, 6-Methyl-N-(4-((4-phenylpiperazin-1-yl)methyl)phenyl) Benzo [d] [1,3] Dioxole-5-sulfonamide]"
6.12,6.54,0.4,weak inverse agonist,183 to 185,7.10,"COc1ccccc1N1CCN(Cc2ccc(NS(=O)(=O)c3cc4c(cc3C)OCO4)cc2)CC1 [Compound 5b, N-(4-((4-(2-Methoxyphenyl)piperazin-1-yl)methyl)phenyl)-6-methylbenzo [d] [1,3] Dioxole-5-sulfonamide]"
6.12,6.11,1,antagonist,192 to 194,6.40,"Cc1cc2c(cc1S(=O)(=O)Nc1ccc(CN3CCN(c4cccc(Cl)c4Cl)CC3)cc1)OCO2 [Compound 5c, N-(4-((4-(2,3-Dichlorophenyl)piperazin-1-yl)methyl)phenyl)-6-methylbenzo [d] [1,3] Dioxole-5-sulfonamide]"
6.38,6.00,2.4,partial agonist,178 to 180,6.09,"O=S(=O)(Nc1ccc(CN2CCN(c3ccccc3)CC2)cc1)c1ccc2c(c1)OCO2 [Compound 5d, N-(4-((4-Phenylpiperazin-1-yl) Methyl) Phenyl) Benzo [d] [1,3] Dioxole-5-Sulfonamide]"
6.64,6.70,0.9,antagonist,149 to 151,7.00,"COc1ccccc1N1CCN(Cc2ccc(NS(=O)(=O)c3ccc4c(c3)OCO4)cc2)CC1 [Compound 5e, N-(4-((4-(2-Methoxyphenyl)piperazin-1-yl)methyl)phenyl) Benzo [d] [1,3] Dioxole-5-sulfonamide]"
6.96,6.70,1.8,partial agonist,163 to 166,6.70,"O=S(=O)(Nc1ccc(CN2CCN(c3cccc(Cl)c3Cl)CC2)cc1)c1ccc2c(c1)OCO2 [Compound 5f, N-(4-((4-(2,3-Dichlorophenyl)piperazin-1-yl)methyl)phenyl) Benzo [d] [1,3] Dioxole-5-sulfonamide]"

# — publication PMC9405847, “Design, Synthesis and Pharmacological Evaluation of Novel Conformationally Restricted N-arylpiperazine Derivatives Characterized as D2/D3 Receptor Ligands, Candidates for the Treatment of Neurodegenerative Diseases” (Biomolecules, 2022)
